Data set [1] in a line: Cytotoxic concentration (CC50). It counts as cell-based. The conditions noted are these: human. The method, then: Next, the compound mixture were further purified and synthesized into saturated (C15:0), monoene (C15:1), diene (C15:2), and triene (C15:3) as described in materials and methods. Toxicities were analyzed and results were calculated to percent viability and CC50 were analyzed using non-linear regression curve (Table 1). […] Cardanol triene was insoluble in DMSO, therefore the compound was excluded from this study. It could be inferred that the polyunsaturated hydrocarbon may involve in stabilizing the cell membrane. […] Moreover, we further explored the CC50 of cardol triene in other cell lines to verify its protective effect. Three human-derived cell lines (THP-1, HEK-293, and HepG2) were used to co-incubate with cardol triene and cardol mixture (73% diene and 27% triene).
Cytotoxic concentrations (CC50) were also studied using Vero cells. Briefly, the 10^4 cells were seeded into each well of 96-well plates. After an overnight incubation, phenolic lipids were serially diluted in DMSO to the final concentrations as follows; 25, 50, 100, 200, 300, 400, and 500 µM. Each concentration was performed in quadruplicates. DMSO at 1% was used as a mock treatment referring to 100% cell viability. Cells were incubated for 48 h before cell viability was accessed using CellTiler 96® Aqueous One Solution Cell Proliferation Assay kit (Promega, Wisconsin, USA). Non-linear regression analysis was used to determine cytotoxic concentrations (CC50) of each experiment. Results were derived from three independent experiments and reported as means and standard error of the means (SEM).

The test system of data set [2] is DENV3 (16562). Nature of the data set: Efficacy (EC50) in infected Vero cells. The following applies: Dengue virus. It counts as cell-based.
In data set [3] the test system is DENV2. Nature of the data set: Fusion inhibition study in C6/36 cells. It counts as cell-based, Dengue virus. The following applies: 10 µM, C6/36, M.O.I. of 1, 48 h, MES. The method, then:
Fusion inhibition study[25]–[27] of DENV and ZIKV were used to confirm the findings. Briefly, cardol triene at 10 µM was added to DENV2 or ZIKV (Fig. 6C-D) infected C6/36 cells at the M.O.I. of 1 for 48 h before inducing acidic condition by MES. The 4G2 antibody was used as a positive control inhibiting both DENV2 and ZIKV fusion. […] Therefore, we concluded that one of the targets of cardol triene, and other CNSL-derived phenolic lipids, was the kl loops of DENV E protein, thus preventing the conformational change of DENV dimer to trimer that was required to initiate pH-dependent fusion.
C6/36 (2 × 10^5) cells were seeded into 24-well plates before infection with DENV2 and ZIKV (M.O.I. of 1) as described. Cardol triene at 10 µM were introduced to the DENV2 and ZIKV infected cells during and after infection. […] Cells were incubate at 28 °C for 2 days before addition of 0.5 M 2-(N-morpholino) ethanesulfonic acid (MES) (pH 5.0) (Sigma Aldrich, St Louis, USA). Moreover, cells from selected wells subsequently underwent DAPI staining. Cell-cell fusion was observed under brightfield and fluorescence using an Eclipse TS100 Inverted Routine Microscope (Nikon, New York, USA).

In data set [4] the test system is DENV2. Kind of data set: Attachment inhibition study. It counts as cell-based, Dengue virus. As to the method:
Since dengue envelope protein was the key factor to receptor-binding, endocytosis, and fusion, we asked the question whether the compound would mainly neutralize the virion, inhibit the receptor binding, or inhibit endosomal fusion. Cardol triene at 10 µM was then co-incubated with DENV2 before, during, and after infection to Vero cells (Fig. 6A). […] Therefore, the major target was most likely at a pH-dependent endosomal fusion. […] However, the major post-infection inhibition required further investigations.
Vero (5 × 10^4) cells were seeded into 24-well plates as previously described. DENV2 (M.O.I. of 1) was diluted in ice-cold MEM with 1% fetal bovine serum[42] and was allowed to adsorb on the cells for 1 h with continuous rocking. Cardol triene (10 µM) was prepared in DMSO and was mixed with DENV2 (M.O.I. of 1) before adsorption for 1 h (pre-attachment). Cardol triene (10 µM) was also mixed with DENV2 (M.O.I. of 1) and immediately applied to the cells (co-attachment). Last, cardol triene was added to the cells after 1 h DENV2 adsorption (post-attachment). The experiments were incubated for 2 days at 37 °C. Intracellular viral RNA was determined from cell lysate using RT-qPCR and infectious virion was determined using plaque titration of the supernatant. DMSO was added to the experiment as a no-inhibition control. Means and standard error of the means (SEM) of three independent experiments were noted.

Data set [5] relates to DENV2 NGC. Nature of the data set: Efficacy study (EC50) in DENV2 infected Vero cells, plaque titration. In kind it is cell-based, Dengue virus. As to the method: Next, we studied the efficacies (EC50) of the phenolic lipid homologues against DENV2 infectivity in Vero cells. Briefly, compounds at 10 different concentrations were added to DENV2-infected Vero cells (M.O.I. of 0.1) during and post infection and the viral inhibition was determined by plaque titration. […] Noted that anacardic acids were major components of CNSL extracts and all homologues were purified directly from CNSL itself.
Next, each homologue was analyzed for effective concentration (EC50). Vero (5 × 10^4) cells were seeded, and infected with DENV2 (M.O.I. of 0.1) as previously described. Phenolic lipid mixtures and homologues were serially diluted in DMSO to the final concentrations as follows; 0, 0.5, 1, 1.5, 2, 2.5, 5, 7.5, 10, 25, and 50 µM. DMSO at the concentration of 1% was used as a mock treatment referring to 100% infection. Infected cells were treated with the designated compounds during and post infection. Supernatants were collected at 3 days after infection for analysis of virion production by plaque titration. Non-linear regression analysis was used to determine the effective concentrations. […] The therapeutic index (TI) was a ration of CC50/EC50 of the compound.

In data set [6] the test system is DENV1 (16007). Nature of the data set: Efficacy (EC50) in infected Vero cells. It counts as cell-based. The following applies: Dengue virus.
Data set [7] concerns dengue virus serotype 1–4. Kind of data set: Pan-dengue inhibition (EC50s over serotypes). It counts as cell-based. The following applies: DENV1, read-out: EC50s, pan-dengue inhibition.
The test system of data set [8] is DENV4 (c0036). Nature of the data set: Efficacy (EC50) in infected Vero cells. The conditions noted are these: Dengue virus. In kind it is cell-based.

Turning to `C=CC/C=C/C/C=C/CCCCCCCc1cc(O)cc(O)c1` [Cardol triene, 5-[8(Z), 11(Z), 14-pentadecatrienyl]resorcinol], the CC50 (as a rule, the concentration giving 50% cytotoxicity) in data set [1] (THP-1 cells) came out at 148 ± 3.78 µM; in data set [1] (HEK-293 cells), 92.8 ± 3.93 µM; in data set [1] (HepG2 cells) it was 140 ± 8.44 µM. Also, the EC50 in data set [2] is 8.98 ± 1.77 µM; in data set [5] (Dengue virus, 72 h, DENV2 NGC (M.O.I. of 0.1) infected Vero cells, plaque titration, 3 days, read-out: EC50) it was 7.13 ± 0.72 µM; in data set [6], 5.35 ± 1.16 µM; in data set [7], 5.35 to 8.89 µM; in data set [8], 8.21 ± 0.34 µM. The “DENV2 pH-dependent cell fusion” value in data set [3] is “exclusively inhibited dengue fusion”. Besides, the “inhibition of intracellular RNA” value in data set [4] (10 µM, post-infection, RT-qPCR) was found to be 87.00 ± 6.43%. Also, the “inhibition of infectious virions” value in data set [4] (10 µM, pre-incubation and co-infection) is recorded as “moderate inhibition”. In addition, the inhibition (in general, the change of the read-out against control, counted positive when it falls) at 10 µM in data set [4] (Dengue virus, DENV2, post-infection, plaque titration, read-out: inhibition of infectious virion) worked out at 91.7 ± 4.53%. Besides, the “TI (therapeutic index, CC50/EC50)” value in data set [5] (Vero CC50 / DENV2 EC50) was 29.07.

(Values after article PMC6226472, “Cardol triene inhibits dengue infectivity by targeting kl loops and preventing envelope fusion” (Scientific Reports, 2018).)
